± gives the expanded uncertainty stated by the source.
Key:
[1] = 293.15 K; 101.33 kPa; Liquid; Pycnometric method
[2] = refractive index (Na D-line) (dimensionless); details: 293.15 K; 101.33 kPa; Liquid; Standard Abbe refractometry

CCCCO [butan-1-ol] showed a mass density [1] of 810.3 ± 0.5 kg/m3 and a refractive index [2] of 1.3997 ± 0.0005.
CC(C)O [propan-2-ol] showed a mass density [1] of 784.9 ± 0.5 kg/m3 and a refractive index [2] of 1.378 ± 0.0005.
For CCCCCCO [hexan-1-ol], the mass density [1] was 813.8 ± 0.5 kg/m3 and the refractive index [2] was 1.4175 ± 0.0005.
In the case of CCCCCO [pentan-1-ol], the mass density [1] is reported as 812.9 ± 0.5 kg/m3 and the refractive index [2] is reported as 1.4092 ± 0.0005.
Work on CCC(C)O (centres undefined) [butan-2-ol] yielded a mass density [1] of 802.6 ± 0.5 kg/m3 and a refractive index [2] of 1.3955 ± 0.0005.
For CCCO [propan-1-ol], the mass density [1] was 803.8 ± 0.5 kg/m3 and the refractive index [2] was 1.3853 ± 0.0005.
Work on CO [methanol] yielded a mass density [1] of 791.7 ± 0.5 kg/m3 and a refractive index [2] of 1.3291 ± 0.0005.
